Values of other authors in PMC7709506 (ESMO Open, 2020).

Conditions: patients, phase I/II trial; cited from earlier work

## CNC(=O)c1cccc2cc(Oc3ccnc4cc(OCC5(N)CC5)c(OC)cc34)ccc12 [lucitanib]
  Hypertension: 91%
  grade 3 hypertension events: 57%
